Values quoted from earlier work, collected in patent US20200138792A1, “PHARMACEUTICAL COMBINATIONS OF ZONISAMIDE AND PRAMIPEXOLE, AND RELATED METHODS, FOR TREATING SYNUCLEINOPATHIES” (CHASE THERAPEUTICS CORPORATION, priority 2017, published 2020).

What was measured:
[1] = target: alpha-synuclein (Homo sapiens, UniProt P37840)
[2] = 5 mg/day of pramipexole
[3] = system: dopaminergic neurons
[4] = target: human wild-type alpha-synuclein (Homo sapiens, UniProt P37840); conditions: hydrogen peroxide plus cytochrome c
[5] = system: human neuroblastoma SH-SY5Y cells
[6] = system: nigral TH-positive neurons; conditions: 20 mg/kg, MPTP-treated mice
[7] = system: nigral dopamine neurons; conditions: 30 mg/kg injection, 6-OHDA mice
[8] = target: T1, A53T α-synuclein (Homo sapiens, UniProt P37840, A53T); conditions: 40 mg/kg/day oral
T1 construct: host or cells: rat brain in vivo, transduced with a viral vector

[9] = system: nigrostriatal dopaminergic neurons; conditions: chronic administration
[10] = 25 mg-50 mg, alone or with levodopa

SMILES | in vitro oligomerization and aggregation of alpha-synuclein [1] | nausea, patients affected [2] [%] | vomiting, patients affected [2] [%] | patients not able to complete the study ([2]; presumably intolerable GI adverse events) [%] | toxic effects of rotenone on dopaminergic neurons ([3]; mouse PD model) | immunoreactivity for alpha-synuclein ([3]; rotenone mouse PD model) | in vitro oligomerization of human wild-type alpha-synuclein [4] | aggregation of alpha-synuclein [5] | loss of nigral TH-positive neurons [6] | striatal dopamine depletion [6] | loss of nigral dopamine neurons [7] | survival of nigrostriatal dopamine neurons [8] | pace of degeneration vs control group ([8]; four weeks after injection of viral vector for A53T α-synuclein gene) | brain-derived neurotrophic factor content in striatum and ventral midbrain vs saline [9] | survival of nigrostriatal dopaminergic neurons, striatal dopaminergic terminals and motor function vs saline [9] | motor symptoms in patients with PD [10]
CCCN[C@H]1CCc2nc(N)sc2C1 [pramipexole, (S)-6-propylamino-4,5,6,7-tetrahydro-1,3-benzothiazole-2-amine] | diminishes synuclein oligomer formation | 76 | 39 | 36 | inhibits | reducing | decreases | inhibit |  |  |  |  |  |  |  | 
NS(=O)(=O)Cc1noc2ccccc12 [zonisamide, 1,2-benzisoxazole-3-methanesulfonamide] | inhibits |  |  |  |  |  |  |  | reduced the loss of nigral TH-positive neurons | attenuating the associated striatal dopamine depletion | prevented the loss of nigral dopamine neurons | no impact | significantly delayed | increased | improved | improve motor symptoms
